Reference: PubChem BioAssay AID2060887 (Molecular Pharmacology Branch, DTP, NCI, 2025)

Test system: 782815-120-R-J1-PDC complex spheroid viability
Assay: Anticancer human tumor 782815-120-R-J1-PDC patient-derived colon adenocarcinoma cell line growth inhibition [RAS]
Details: for IC50: curve of first compound; for viability, T/C: stronger effect = lower value; active means viability on the fitted dose curve at most 10% of control; inactive means the rest
How it was run: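 Agents were tested in combination matrices in half-log decrements from a top concentration at or near clinical Cmax (10 microM if undetermined). Targets were multi-cell spheroids of tumour lines plus HUVEC and MSC stromal cells.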

[1] = second compound 0.000949 µM, first compound 0.00316 µM
[2] = second compound 0.000949 µM, first compound 0.01 µM
[3] = second compound 0.000949 µM, first compound 0.0316 µM
[4] = second compound 0.000949 µM, first compound 0.1 µM
[5] = second compound 0.000949 µM, first compound 0.316 µM
[6] = second compound 0.000949 µM, first compound 1 µM
[7] = second compound 0.003 µM, first compound 0.00316 µM
[8] = second compound 0.003 µM, first compound 0.01 µM
[9] = second compound 0.003 µM, first compound 0.0316 µM
[10] = second compound 0.003 µM, first compound 0.1 µM
[11] = second compound 0.003 µM, first compound 0.316 µM
[12] = second compound 0.003 µM, first compound 1 µM
[13] = second compound 0.00949 µM, first compound 0.00316 µM
[14] = second compound 0.00949 µM, first compound 0.01 µM
[15] = second compound 0.00949 µM, first compound 0.0316 µM
[16] = second compound 0.00949 µM, first compound 0.1 µM
[17] = second compound 0.00949 µM, first compound 0.316 µM
[18] = second compound 0.00949 µM, first compound 1 µM
[19] = second compound 0.03 µM, first compound 0.00316 µM
[20] = second compound 0.03 µM, first compound 0.01 µM
[21] = second compound 0.03 µM, first compound 0.0316 µM
[22] = second compound 0.03 µM, first compound 0.1 µM
[23] = second compound 0.03 µM, first compound 0.316 µM
[24] = second compound 0.03 µM, first compound 1 µM
[25] = second compound 0.0949 µM, first compound 0.00316 µM
[26] = second compound 0.0949 µM, first compound 0.01 µM
[27] = second compound 0.0949 µM, first compound 0.0316 µM
[28] = second compound 0.0949 µM, first compound 0.1 µM
[29] = second compound 0.0949 µM, first compound 0.316 µM
[30] = second compound 0.0949 µM, first compound 1 µM
[31] = second compound 0.3 µM, first compound 0.00316 µM
[32] = second compound 0.3 µM, first compound 0.01 µM
[33] = second compound 0.3 µM, first compound 0.0316 µM
[34] = second compound 0.3 µM, first compound 0.1 µM
[35] = second compound 0.3 µM, first compound 0.316 µM
[36] = second compound 0.3 µM, first compound 1 µM
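Further: spheroids exposed to compounds for 7 days before reading.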
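Wherever viability, T/C is given: 100% = DMSO vehicle control viability.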

C=CC(=O)N1CCN(c2nc(OCC3CCCN3C)nc3c(F)c(-c4nc(N)cc(C)c4C(F)(F)F)c(Cl)cc23)C(C)C1 (stereo unspecified) + CCn1c(-c2cc(N3CCN(C)CC3)cnc2C(C)OC)c2c3cc(ccc31)-c1csc(n1)CC(NC(=O)C1CC1C)C(=O)N1CCCC(N1)C(=O)OCC(C)(C)C2
inactive: viability, T/C [1] 82.5% | viability, T/C [2] 74.3% | viability, T/C [3] 70% | viability, T/C [4] 79.5% | viability, T/C [5] 77.1% | viability, T/C [6] 90% | viability, T/C [7] 57.1% | viability, T/C [8] 56.9% | viability, T/C [9] 57.9% | viability, T/C [10] 49.6% | viability, T/C [11] 55% | viability, T/C [12] 57.2% | viability, T/C [13] 31.1% | viability, T/C [14] 32% | viability, T/C [15] 36.7% | viability, T/C [16] 29.8% | viability, T/C [17] 31.6% | viability, T/C [18] 31% | viability, T/C [19] 19.6% | viability, T/C [20] 22% | viability, T/C [21] 17.9% | viability, T/C [22] 20.6% | viability, T/C [23] 18.1% | viability, T/C [24] 19.8% | viability, T/C [25] 16% | viability, T/C [26] 14.3% | viability, T/C [27] 16.1% | viability, T/C [28] 15.5% | viability, T/C [29] 15.2% | viability, T/C [30] 13.5% | viability, T/C [31] 16.1% | viability, T/C [32] 16.3% | viability, T/C [33] 15.6% | viability, T/C [34] 16.5% | viability, T/C [35] 16.2% | viability, T/C [36] 13.6%
> 1000 nM: IC50 (second compound 0.000949 µM) | IC50 (second compound 0.003 µM)
< 3.16 nM: IC50 (second compound 0.00949 µM) | IC50 (second compound 0.03 µM) | IC50 (second compound 0.0949 µM) | IC50 (second compound 0.3 µM)

CCN1CCN(Cc2ccc(Nc3ncc(F)c(-c4cc(F)c5nc(C)n(C(C)C)c5c4)n3)nc2)CC1 + CCn1c(-c2cccnc2C(C)OC)c2c3cc(ccc31)N1CCOC(CC(NC(=O)C(C(C)C)N(C)C(=O)C3(F)CCN(C(=O)C#CC(C)(C)N(C)C)CC3)C(=O)N3CCCC(N3)C(=O)OCC(C)(C)C2)C1
inactive: viability, T/C [1] 104% | viability, T/C [2] 99.3% | viability, T/C [3] 106% | viability, T/C [4] 92% | viability, T/C [5] 124% | viability, T/C [6] 125% | viability, T/C [7] 95% | viability, T/C [8] 97% | viability, T/C [9] 95.7% | viability, T/C [10] 98% | viability, T/C [11] 118% | viability, T/C [12] 121% | viability, T/C [13] 96.3% | viability, T/C [14] 99.6% | viability, T/C [15] 102% | viability, T/C [16] 103% | viability, T/C [17] 118% | viability, T/C [18] 127% | viability, T/C [19] 99.8% | viability, T/C [20] 109% | viability, T/C [21] 101% | viability, T/C [22] 102% | viability, T/C [23] 117% | viability, T/C [24] 127% | viability, T/C [25] 92.3% | viability, T/C [26] 95.5% | viability, T/C [27] 97% | viability, T/C [28] 102% | viability, T/C [29] 123% | viability, T/C [30] 134% | viability, T/C [31] 92.8% | viability, T/C [32] 91.6% | viability, T/C [33] 104% | viability, T/C [34] 110% | viability, T/C [35] 122% | viability, T/C [36] 122%
> 1000 nM: IC50 (second compound 0.000949 µM) | IC50 (second compound 0.003 µM) | IC50 (second compound 0.00949 µM) | IC50 (second compound 0.03 µM) | IC50 (second compound 0.0949 µM) | IC50 (second compound 0.3 µM)

CC1(O)CCCC1n1c(=O)c(C(F)F)cc2cnc(NC3CCN(S(C)(=O)=O)CC3)nc21 (stereo unspecified) + CCn1c(-c2cccnc2C(C)OC)c2c3cc(ccc31)N1CCOC(CC(NC(=O)C(C(C)C)N(C)C(=O)C3(F)CCN(C(=O)C#CC(C)(C)N(C)C)CC3)C(=O)N3CCCC(N3)C(=O)OCC(C)(C)C2)C1
4630 nM: IC50 (second compound 0.003 µM)
4040 nM: IC50 (second compound 0.00949 µM)
inactive: viability, T/C [3] 61.7% | viability, T/C [4] 57.9% | viability, T/C [5] 65.8% | viability, T/C [6] 63% | viability, T/C (second compound 0.000949 µM, first compound 3.16 µM) 61.5% | viability, T/C (second compound 0.000949 µM, first compound 10 µM) 23.8% | viability, T/C [9] 63.4% | viability, T/C [10] 64.5% | viability, T/C [11] 63.5% | viability, T/C [12] 54.9% | viability, T/C (second compound 0.003 µM, first compound 3.16 µM) 65.2% | viability, T/C (second compound 0.003 µM, first compound 10 µM) 25.2% | viability, T/C [15] 57.6% | viability, T/C [16] 55.1% | viability, T/C [17] 64.3% | viability, T/C [18] 70.3% | viability, T/C (second compound 0.00949 µM, first compound 3.16 µM) 55% | viability, T/C (second compound 0.00949 µM, first compound 10 µM) 24% | viability, T/C [21] 69.3% | viability, T/C [22] 53.7% | viability, T/C [23] 69.1% | viability, T/C [24] 61.9% | viability, T/C (second compound 0.03 µM, first compound 3.16 µM) 61.3% | viability, T/C (second compound 0.03 µM, first compound 10 µM) 24.8% | viability, T/C [27] 67% | viability, T/C [28] 59.5% | viability, T/C [29] 70.3% | viability, T/C [30] 65.2% | viability, T/C (second compound 0.0949 µM, first compound 3.16 µM) 71.1% | viability, T/C (second compound 0.0949 µM, first compound 10 µM) 22% | viability, T/C [33] 66.7% | viability, T/C [34] 50.9% | viability, T/C [35] 58% | viability, T/C [36] 69.2% | viability, T/C (second compound 0.3 µM, first compound 3.16 µM) 61.5% | viability, T/C (second compound 0.3 µM, first compound 10 µM) 18.7%
4500 nM: IC50 (second compound 0.000949 µM) | IC50 (second compound 0.03 µM)
4290 nM: IC50 (second compound 0.3 µM)
4860 nM: IC50 (second compound 0.0949 µM)
